IC50 data for 33 molecules are collected here from US11339169B2, “P2X3 and/or P2X2/3 compounds and methods” (Asana BioSciences, LLC, priority 2016, dated 2022).

Each structure is given as a SMILES string.

One experiment addresses T1, hP2X3 (Homo sapiens, UniProt P56373).
T1 construct: host or cells: HEK (hP2X3-HEK)
T1 sequence (P56373 1-397): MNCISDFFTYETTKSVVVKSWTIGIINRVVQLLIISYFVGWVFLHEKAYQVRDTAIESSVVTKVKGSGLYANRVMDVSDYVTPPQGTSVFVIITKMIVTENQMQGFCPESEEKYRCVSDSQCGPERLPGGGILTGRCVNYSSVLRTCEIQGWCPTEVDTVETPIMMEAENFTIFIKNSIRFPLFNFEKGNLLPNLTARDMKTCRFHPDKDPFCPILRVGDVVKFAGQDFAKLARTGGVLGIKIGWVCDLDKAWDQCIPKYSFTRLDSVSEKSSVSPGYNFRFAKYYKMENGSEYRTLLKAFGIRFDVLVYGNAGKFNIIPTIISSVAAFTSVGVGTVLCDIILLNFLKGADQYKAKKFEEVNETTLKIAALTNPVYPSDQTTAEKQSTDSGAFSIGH
Description: FLIPR intracellular calcium assay, hP2X3. It is filed as cell-based. As to conditions: human P2X3-HEK cells, agonist at EC75. The text has this:
(§1) The FLIPR® assay utilizes cells which express human or rat P2X3 or P2X2/3 receptors. Recombinant cells expressing hP2X3 (Cat #6188) and hP2X2/3 (Cat #6179) were procured from Chantest Corp. Rat P2X2 (NCBI Accession No: U14414) was amplified by PCR from PC12 cDNA (a rat adrenal medulla cell line). The PCR product obtained containing the protein coding sequence of rat P2X2 was cloned into EcoRV-digested and dephosphorylated vector plRES-puro3 within the multiple cloning site (MCS). See, FIG. 1A.
(§2) (i) Intracellular Calcium Assay Protocol for Screening Compounds
(§3) Cryo-vial containing 6×10^6 cells (human P2X3-HEK/human P2X2/3-TRex293/rat P2X2/3-TRex293/rat P2X3 TRex-CHO) was thawed in a 37° C. water bath. Cells were suspended in 20 mL of respective cell plating media (See annexure for composition) in a 50 mL centrifuge tube. The cell viability was checked with the help of Trypan Blue dye. Upon washing, cells were plated in a black 384-well clear bottomed, sterile poly-D-lysine coated plate such that, each well contained 10,000 cells (15,000/well for hP2X3) in 30 μL cell plating media. The plate was incubated in a 5% CO2 incubator at 37° C. for 24 h.
(§4) The next day, prior to the assay, the cell plating media was removed from each well by decanting and gentle tapping. Thirty μL of FLIPR Calcium 4 dye solution was added to each well. The plate was incubated at 37° C. for 45 min (60 min for hP2X3). The plate was next equilibrated at room temperature for 15 minutes before placing it in a 384 well FLIPR for the assay.
(§5) Compounds were dissolved in DMSO and serially diluted following 11 point half log (3.16 fold) dilution with a starting concentration of 2 mM. Dilutions were mixed with assay buffer just before performing the assay.
(§6) Compounds were added to the respective wells of the assay-ready cell plate with the help of the FLIPR and fluorescence readings were captured for 5 min to observe any possible agonistic property of the compounds. The plate was then incubated at room temperature for 15 min. The cells were stimulated with respective agonist EC75 concentration and the fluorescence readings were captured for another 5 min by FLIPR. The difference in fluorescence readings in presence of the compounds were compared with that of the control wells (wells having no compound) to calculate the inhibitory potency of the compounds. The IC50 values of the compounds were determined using the Graph pad Prism software.
(§7) (ii) Cell Plating Media for hP2X3-HEK and hP2X2/3-TRex293 Cells • DMEM/F12 (1:1) HAM media (Invitrogen; Cat #11039) • 1×NEAA (Invitrogen; Cat #11140) • 25 mM HEPES (Invitrogen; Cat #15630) • 1 mM sodium pyruvate (Invitrogen; Cat #11360) • 10% tetracycline negative FBS (PAA; Cat #A15-209) • 1 μg/mL doxycycline (Clontech; Cat #63131) [for hP2X2/3-TRex293 cells only]
(§8) (v) Assay Buffer Composition • HBSS (Invitrogen Cat #14025) • 20 mM HEPES (Invitrogen Cat #15630) • 0.01% F127 (Sigma Cat #P2443) • 1.8 mM CaCl2 (Sigma Cat #C5080) • pH adjusted to 7.4
(§9) (vi) Dye Solution Composition • 1× FLIPR Calcium 4 dye in assay buffer (Molecular devices Cat #R8141) • 1.8 mM Probenecid (Sigma Cat #P8761) • pH adjusted to 7.4
On the technique in general: A change in cytosolic calcium serves as a functional read-out for many receptors and channels.

The next experiment addresses T2, hP2X2/3 (Homo sapiens, UniProt P56373+Q9UBL9).
T2 construct: host or cells: TRex293 (hP2X2/3-TRex293), doxycycline-induced
T2 sequence (P56373 1-397): T1 sequence (P56373 1-397)
T2 sequence (Q9UBL9 1-471): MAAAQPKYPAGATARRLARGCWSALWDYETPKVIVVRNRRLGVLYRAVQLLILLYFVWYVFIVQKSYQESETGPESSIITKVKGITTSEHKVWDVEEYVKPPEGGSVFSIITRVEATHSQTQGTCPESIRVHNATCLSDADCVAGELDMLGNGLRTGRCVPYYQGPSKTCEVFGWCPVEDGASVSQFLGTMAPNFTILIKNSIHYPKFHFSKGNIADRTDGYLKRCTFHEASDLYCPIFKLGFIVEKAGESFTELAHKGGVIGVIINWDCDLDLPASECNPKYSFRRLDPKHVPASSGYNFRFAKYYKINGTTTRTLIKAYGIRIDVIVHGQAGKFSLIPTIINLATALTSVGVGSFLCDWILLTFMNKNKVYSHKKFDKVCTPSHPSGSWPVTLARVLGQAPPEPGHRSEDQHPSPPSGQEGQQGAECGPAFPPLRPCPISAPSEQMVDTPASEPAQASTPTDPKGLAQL
In words: FLIPR intracellular calcium assay, hP2X2/3. The settings on record: human P2X2/3-TRex293 cells, agonist at EC75. In kind it is cell-based.
Source text: as §1, §2, §3, §4, §5, §6, §7, §8, §9

As for `CC(=O)N1CCN(c2nc(N[C@H](C)c3cnc4ccccc4c3)c3c(cnn3CC(C)C)n2)CC1` [Example 16], the IC50 was in the range of 1 to 100 nM on hP2X3 and 1000 to 10000 nM at hP2X2/3.
With `CCC(C)n1ncc2nc(N3CCN(C(C)=O)CC3)nc(N[C@@H](C)c3cnc4ccccc4c3)c21` (stereo partly drawn) [Example 18], the results for the IC50 at hP2X3 and at hP2X2/3 were 100 to 1000 nM and 1000 to 10000 nM, respectively.
For `CC[C@@H](C)n1ncc2nc(N3CCN(C(C)=O)CC3)nc(N[C@H](C)c3cnc4ccccc4c3)c21` [Example 21] the same measures were 1 to 100 nM and 1000 to 10000 nM.
For `CCC(CC)n1ncc2nc(N3CCN(C(C)=O)CC3)nc(N[C@H](C)c3cnc4ccccc4c3)c21` [Example 22], the IC50 on hP2X3 and at hP2X2/3 was 1 to 100 nM in each case.
`CCN1CCN(c2nc(N[C@H](C)c3cnc4ccccc4c3)c3c(cnn3C(C)C)n2)CC1=O` [Example 23]: the IC50 at hP2X3 is 1 to 100 nM; at hP2X2/3, 1000 to 10000 nM.
For `COCC(C)n1ncc2nc(N3CCN(C(C)=O)CC3)nc(N[C@H](C)c3cnc4ccccc4c3)c21` (stereo partly drawn) [Example 24], the IC50 at hP2X3 fell in the range of 1 to 100 nM; at hP2X2/3, 1000 to 10000 nM.
On to `CC(=O)N1CCN(c2nc(N[C@H](C)c3cnc4ccccc4c3)c3c(cnn3C3CCCC3)n2)CC1` [Example 25], for which the IC50 on hP2X3 lay in the range of 1 to 100 nM; on hP2X2/3, 1000 to 10000 nM.
In the same order, the values of `CCC(CC)n1ncc2nc(N3CCN(C(C)=O)CC3)nc(NCC3(c4ccc(Cl)cc4)CCC3)c21` [Example 29] are 1 to 100 nM and 1000 to 10000 nM.
In the same order, the values of `CCOc1ccc(C(C)Nc2nc(N3CCN(C(C)=O)CC3)nc3cnn(C(CC)CC)c23)cc1` (stereo not drawn) [Example 30] are 1 to 100 nM and 1000 to 10000 nM.
In the same order, the values of `CCC(C)n1ncc2nc(N3CCN(C(C)=O)CC3)nc(NCC3(c4ccc(Cl)cc4)CCC3)c21` (stereo not drawn) [Example 31] are 1 to 100 nM and 1000 to 10000 nM.
In the case of `CC(=O)N1CCN(c2nc(N[C@H](C)c3cnc4ccccc4c3)c3c(cnn3CC3CCC3)n2)CC1` [Example 32], the IC50 at hP2X3 was in the range of 1 to 100 nM; on hP2X2/3, 1000 to 10000 nM.
For `CCOc1ccc([C@H](C)Nc2nc(N3CCN(C(C)=O)CC3)nc3cnn(C(CC)CC)c23)cc1` [Example 33], the IC50 on hP2X3 was in the range of 1 to 100 nM; at hP2X2/3, 1000 to 10000 nM.
In the case of `CC(=O)N1CCN(c2nc(N[C@H](C)c3cnc4ccccc4c3)c3c(cnn3C(C3CC3)C3CC3)n2)CC1` [Example 34], the IC50 at hP2X3 and at hP2X2/3 was 1 to 100 nM throughout.
On to `CCC(CC)n1ncc2nc(N3CCN(C(C)=O)CC3)nc(N[C@H](CC)c3cnc4ccccc4c3)c21` [Example 35], for which the half-inhibitory concentration (IC50) at hP2X3 is 1 to 100 nM; at hP2X2/3, 100 to 1000 nM.
For the molecule `CCC(CC)n1ncc2nc(N3CCN(C(C)=O)CC3)nc(NC(C)c3ccc4occc4c3)c21` (stereo not drawn) [Example 39], the IC50 lay within 100 to 1000 nM at hP2X3 and 1000 to 10000 nM on hP2X2/3.
In the same order, the values of `CCC(CC)n1ncc2nc(N3CCN(C(C)=O)CC3)nc(N[C@H](C)c3ccc4ccccc4c3)c21` [Example 40] are 1 to 100 nM and 100 to 1000 nM.
In the same order, the values of `CCC(CC)n1ncc2nc(N3CCN(C(C)=O)CC3)nc(NC(C)c3cnc4ccc(F)cc4c3)c21` (stereo not drawn) [Example 42] are 1 to 100 nM and 100 to 1000 nM.
In the same order, the values of `CCC(C)n1ncc2nc(N3CCN(C(C)=O)CC3)nc(N[C@H](CC)c3cnc4ccccc4c3)c21` (stereo partly drawn) [Example 43] are 1 to 100 nM and 1000 to 10000 nM.
As for `CCC(CC)n1ncc2nc(N3CCN(C(C)=O)CC3)nc(N[C@@H](c3cnc4ccccc4c3)C3CC3)c21` [Example 44], the IC50 at hP2X3 and at hP2X2/3 was 1 to 100 nM in each case.
Regarding `CCC(C)n1ncc2nc(N3CCN(C(C)=O)CC3)nc(NC(C)c3ccc4oc(C)cc4c3)c21` (stereo not drawn) [Example 45], the values for the IC50 on hP2X3 and at hP2X2/3 were 1 to 100 nM and 1000 to 10000 nM, respectively.
For `CCC(CC)n1ncc2nc(N3CCN(C(C)=O)CC3)nc(NC(C)c3ccc4oc(C)cc4c3)c21` (stereo not drawn) [Example 46] the same measures were 1 to 100 nM and 100 to 1000 nM.
For `CCC(CC)n1ncc2nc(N3CCN(C(C)=O)CC3)nc(NC(C)c3ccc(OC(C)C)cc3)c21` (stereo not drawn) [Example 47] the same measures were 1 to 100 nM and 1000 to 10000 nM.
Take `CC(=O)N1CCN(c2nc(N[C@H](C)c3cnc4ccccc4c3)c3c(cnn3C3CCC3)n2)CC1` [Example 48]: the IC50 on hP2X3 was 1 to 100 nM; at hP2X2/3, 1000 to 10000 nM.
In the same order, the values of `C[C@@H](Nc1nc(N2CCN(C)C(=O)C2)nc2cnn(C3CCC3)c12)c1cnc2ccccc2c1` [Example 49] are 1 to 100 nM and 1000 to 10000 nM.
Take `CCC(CC)n1ncc2nc(N3CCN(C(N)=O)CC3)nc(N[C@H](C)c3cnc4ccccc4c3)c21` [Example 51]: the IC50 on hP2X3 and at hP2X2/3 was 1 to 100 nM in each case.
For the molecule `CCC(C)n1ncc2nc(N3CCN(C(C)=O)CC3)nc(NC(C)c3ccc(-c4ccccc4)nc3)c21` (stereo not drawn) [Example 52], the IC50 at hP2X3 was 1 to 100 nM; on hP2X2/3 it was 1000 to 10000 nM.
`CCC(CC)n1ncc2nc(N3CCN(C(C)=O)CC3)nc(NC(C)c3ccc4oc(C5CC5)cc4c3)c21` (stereo not drawn) [Example 55]: the IC50 at hP2X3 is 1 to 100 nM; on hP2X2/3 it was 100 to 1000 nM.
`CCC(C)n1ncc2nc(N3CCN(C(C)=O)CC3)nc(N[C@@H](c3cnc4ccccc4c3)C3CC3)c21` (stereo partly drawn) [Example 56]: the results for the IC50 at hP2X3 and at hP2X2/3 were 1 to 100 nM and 100 to 1000 nM, respectively.
With `CCC(CC)n1ncc2nc(N3CCN(C(C)=O)CC3)nc(NC(C)c3ccc4sccc4c3)c21` (stereo not drawn) [Example 57], the IC50 was in the range of 1 to 100 nM on hP2X3 and 100 to 1000 nM on hP2X2/3.
For `CCC(C)n1ncc2nc(N3CCN(C(C)=O)CC3)nc(NC(c3ccc(-c4ccccc4)nc3)C3CC3)c21` (stereo not drawn) [Example 58] the same measures were 1 to 100 nM and 1000 to 10000 nM.
For `CC(C)n1ncc2nc(N3CCN(C)C(=O)C3)nc(N[C@@H](c3cnc4ccccc4c3)C3CC3)c21` [Example 59] the same measures were 1 to 100 nM and 100 to 1000 nM.
In the same order, the values of `CC(=O)N1CCN(c2nc(N[C@H](C)c3cnc4ccccc4c3)c3c(cnn3C(C)C(C)C)n2)CC1` (stereo partly drawn) [Example 60] are 1 to 100 nM and 100 to 1000 nM.
For `CCC(CC)n1ncc2nc(N3CCN(C(C)=O)CC3)nc(N[C@H](C)c3cnc4ccc(F)cc4c3)c21` [Example 61], the IC50 on hP2X3 fell in the range of 1 to 100 nM; at hP2X2/3, 100 to 1000 nM.

Usually IC50 stands for the midpoint of a concentration-inhibition curve.
